# Test: Odor detection threshold (ODT) determined using a gas chromatograph
# Conditions: odor detection threshold of HIA perfume ingredient
# Excerpt: HIA perfume ingredients are characterized by their respective boiling point (B.P.), octanol/water partition coefficient (P) and odor detection threshold (“ODT”). The “octanol/water partition coefficient (P)” of a perfume ingredient is the ratio between its equilibrium concentrations in octanol and in water. The boiling points of many perfume ingredients, at standard pressure (760 mm Hg) are given in, e.g., “Perfume and Flavor Chemicals (Aroma Chemicals),” Steffen Arctander, published by the author.
# Odor detection thresholds are determined using a gas chromotograph as disclosed in co-pending application, Browne, et al., filed Jun. 9, 2004.
row,Molecule,ODT
1,CCC=CCCC=CC=O [2-6-nonadienal],≦50 ppb
2,CC(C)=CCCC(C)CCCC(C)C=O (stereo not drawn) [Adoxal],≧50 ppb
3,C=CCOC(=O)CCCCCC [Allyl Heptanoate],≧50 ppb
4,CC/C=C\CCO [Beta Gamma Hexenol],≧50 ppb
5,CC/C=C\CCOC(C)=O [Cis 3 Hexenyl Acetate],≧50 ppb
6,C/C=C\C(=O)C1C(C)=CCCC1(C)C (stereo not drawn) [Damarose Alpha],≦50 ppb
7,CCCCCCCCCC=O [Decyl Aldehyde],≦50 ppb
8,CCCCCCC(C=O)=Cc1ccccc1 [Hexyl Cinnamic Aldehyde],≧50 ppb
9,CC(=O)/C=C/C1=C(C)CCCC1(C)C [Ionone Beta],≦50 ppb
10,CCCCCCCCC/C=C/C=O [Mandarin Aldehyde],≦50 ppb
11,CC(C)=CCCC(C)C=O (stereo not drawn) [Melonal],≦50 ppb
12,CCCCCCCCCC(C)C=O (stereo not drawn) [Methyl Nonyl Acetaldehyde],≦50 ppb
13,CC1=CCC(C(C)CC2CCCC2=O)CC1 (stereo not drawn) [Nectaryl],≧50 ppb
14,C=CCCC(=O)C1=CCCC(C)(C)C1 [Neobutenone],≦50 ppb
15,CC(=O)CCc1ccc(O)cc1 [Para Hydroxy Phenyl Butanone],≦50 ppb
16,CC1(C)C2CC=C(CCC=O)C1C2 (stereo not drawn) [Pino Acetaldehyde],≦50 ppb
17,CCC/C=C/C=O [Trans-2 Hexenal],≦50 ppb
18,CCCCCCCC1CCC(=O)O1 (stereo not drawn) [Undecalactone],≧50 ppb
19,CC(=O)OC1CCCCC1C(C)(C)C (stereo not drawn) [Verdox],≧50 ppb
20,C=C(C)[C@H]1CC=C(C)CC1 [d-limonene],≧50 ppb
21,CCOC(=O)C(C)CC (stereo not drawn) [ethyl-2-methyl butyrate],≦50 ppb
22,CCCCCCC=CC(=O)OC [methyl-2-nonenoate],≦50 ppb
23,Citralva Plus,≦50 ppb
24,Natural Sinensal,≦50 ppb
